Source: US8841466B2, “Series of artemisinin derivatives and process for preparation thereof” (Council of Scientific & Industrial Research, priority 2010, dated 2014)

Experiments:
Ovary IGR-OV-1 = assay: In vitro cytotoxicity (sulforhodamine B) against human cancer cell lines, Ovary IGR-OV-1; type: cell-based; settings: IGROV-1, Conc 5 × 10^−5 M, 48 hours, read-out: % GROWTH INHIBITION Ovary IGR-OV-1
Protocol: (§1) The human cancer cell lines procured from National Cancer Institute, Frederick, U.S.A., were used in present study. Cells were grown in tissue culture flasks in complete growth medium (RPMI-1640 medium with 2 mM glutamine, 100 μg/mL streptomycin, pH 7.4, sterilized by filtration and supplemented with 10% fetal bovine serum and 100 units/ml penicillin before use) at 37° C. in an atmosphere of 5% CO2 and 90% relative humidity in a carbon dioxide incubator. The cells at subconfluent stage were harvested from the flask by treatment with trypsin (0.05% in PBS containing 0.02% EDTA) for determination of cytotoxicity. The cell suspension of the required cell density was prepared in complete growth medium with gentamycin (50 μg/mL) for determination of cytotoxicity.
(§2) Stock solutions of 2×10^−2M of test materials were prepared in DMSO. The stock solutions were serially diluted with complete growth medium containing 50 μg/ml of gentamycin to obtain working test solution of 2×10^−5M to obtain final concentration of 1×10^−5 M respectively.
(§3) In vitro cytotoxicity against human cancer cell lines was determined (Monks of al., J. Natl. Cancer Inst. 1991, 83, 757-766). The 100 μL of cell suspension was added to each well of the 96-well tissue culture plate. The cells were incubated for 24 hours (at 37° C. in an atmosphere of 5% CO2 and 90% relative humidity in a carbon dioxide incubator). Test materials in complete growth medium (100 μL) were added after 24 hours incubation to the wells containing cells. The plates were further incubated for 48 hours in a carbon dioxide incubator after addition of test material. The cell growth was stopped by gently layering trichloroacetic acid (50 μL, 50% w/v) on top of the medium in all the wells. The plates were incubated at 4° C. for one hour to fix the cells attached to the bottom of the wells. The liquid of all the wells was then gently decanted and discarded. The plates were washed five times with distilled water and air-dried. Cell growth was measured by staining with sulforhodamine B dye (Skehan et al., J. Natl. Cancer Inst. 1990, 82, 1107-1112). The adsorbed dye was dissolved in Tris-Buffer (100 μL, 0.01M, pH 10.4) and plates were gently stirred for 10 minutes on a mechanical stirrer. The optical density (OD) was recorded on ELISA reader at 540 nm.
(§4) The cell growth was calculated by subtracting mean OD value of respective blank from the mean OD value of experimental set. Percent growth in presence of test material was calculated considering the growth in absence of any test material as 100% and in turn percent growth inhibition in presence of test material was calculated. Suitable blank, controls and positive controls were included in the study.

Lung A-549 = assay: In vitro cytotoxicity (sulforhodamine B) against human cancer cell lines, Lung A-549; type: cell-based; settings: read-out: % GROWTH INHIBITION Lung A-549; for inhibition at 50 µM: A549, Conc 5 × 10^−5 M, 48 hours
Protocol: as §1, §2, §3, §4

Neuroblastoma IMR-32 = assay: In vitro cytotoxicity (sulforhodamine B) against human cancer cell lines, Neuroblastoma IMR-32; type: cell-based; settings: read-out: % GROWTH INHIBITION Neuroblastoma IMR-32; for inhibition at 50 µM: Conc 5 × 10^−5 M, 48 hours
Protocol: as §1, §2, §3, §4

Colon Colo-205 = assay: In vitro cytotoxicity (sulforhodamine B) against human cancer cell lines, Colon Colo-205; type: cell-based; settings: read-out: % GROWTH INHIBITION Colon Colo-205; for inhibition at 50 µM: Conc 5 × 10^−5 M, 48 hours
Protocol: as §1, §2, §3, §4

Breast MCF-7 = assay: In vitro cytotoxicity (sulforhodamine B) against human cancer cell lines, Breast MCF-7; type: cell-based; settings: read-out: % GROWTH INHIBITION Breast MCF-7; for inhibition at 50 µM: MCF7, Conc 5 × 10^−5 M, 48 hours
Protocol: as §1, §2, §3, §4

Prostrate PC-3 = assay: In vitro cytotoxicity (sulforhodamine B) against human cancer cell lines, Prostrate PC-3; type: cell-based; settings: read-out: % GROWTH INHIBITION Prostrate PC-3; for inhibition at 50 µM: Conc 5 × 10^−5 M, 48 hours
Protocol: as §1, §2, §3, §4

Prostrate DU-145 = assay: In vitro cytotoxicity (sulforhodamine B) against human cancer cell lines, Prostrate DU-145; type: cell-based; settings: read-out: % GROWTH INHIBITION Prostrate DU-145; for inhibition at 50 µM: Conc 5 × 10^−5 M, 48 hours
Protocol: as §1, §2, §3, §4

P388 leukemia = settings: NCI Report on NSC 369397, 25 Oct. 1983; cited from earlier work
[1] = system: Ehrlich ascites tumor (EAT) cells; settings: MTT assay, read-out: IC50 (drug concentration causing 50% growth inhibition of the tumor cells); cited from earlier work
[2] = system: cell line panels consisting of 60 lines; settings: nine disease-related subpanels; cited from earlier work
[3] = Conc 1 × 10^−5 M, positive control

| Compound | inhibition at 50 µM (Ovary IGR-OV-1) [%] | inhibition at 50 µM (Lung A-549) [%] | inhibition at 50 µM (Neuroblastoma IMR-32) [%] | inhibition at 50 µM (Colon Colo-205) [%] | inhibition at 50 µM (Breast MCF-7) [%] | inhibition at 50 µM (Prostrate PC-3) [%] | inhibition at 50 µM (Prostrate DU-145) [%] | further results |
| --- | --- | --- | --- | --- | --- | --- | --- | --- |
| C=C(C(=O)OC)[C@H](O)C[C@H]1O[C@@H]2O[C@]3(C)CC[C@H]4[C@H](C)CC[C@@H]([C@H]1C)[C@@]24OO3 [Compound 3a] | 63 | 70 | 56 |  |  |  |  |  |
| C=C(C#N)[C@H](O)C[C@H]1O[C@@H]2O[C@]3(C)CC[C@H]4[C@H](C)CC[C@@H]([C@H]1C)[C@@]24OO3 (single isomer, unassigned) [Compound 3b] | 42 | 66 | 48 | 56 | 46 | 65 | 46 |  |
| C=C(C#N)[C@@H](O)C[C@H]1O[C@@H]2O[C@]3(C)CC[C@H]4[C@H](C)CC[C@@H]([C@H]1C)[C@@]24OO3 (single isomer, unassigned) [Compound 3b′] | 56 | 77 | 62 | 75 | 55 | 78 | 60 |  |
| C[C@@H]1CC[C@H]2[C@@H](C)C(=O)O[C@@H]3O[C@@]4(C)CC[C@@H]1[C@]32OO4 [Artemisinin, artemisinin] | 26 | 29 | 23 | 40 | 34 | 22 | 38 | activity against P388 leukemia (P388 leukemia): inactive; IC50 [1]: 29.8 µM; anticancer activity on 60 cell line panels [2]: very little anticancer activity |
| COc1cccc2c1C(=O)c1c(O)c3c(c(O)c1C2=O)C[C@@](O)(C(=O)CO)C[C@@H]3O[C@H]1C[C@H](N)[C@H](O)[C@H](C)O1 [Adriamycin, reference compound] |  |  |  |  |  |  |  | inhibition at 1 µM (Breast MCF-7; MCF7, Conc 1 × 10^−6 M, positive control): 72%; inhibition at 1 µM (Neuroblastoma IMR-32; Conc 1 × 10^−6 M, positive control): 70% |
| O=c1[nH]cc(F)c(=O)[nH]1 [5-Fluorouracil, reference compound] |  |  |  |  |  |  |  | inhibition at 20 µM (Colon Colo-205; Conc 2 × 10^−5 M, positive control): 54% |
| C[C@H]1[C@@H](C[C@@H](O)C2=CCCCC2=O)O[C@@H]2O[C@]3(C)CC[C@H]4[C@H](C)CC[C@@H]1[C@@]24OO3 [Compound 3d] | 60 | 66 | 72 | 63 | 43 | 68 | 52 |  |
| C=C(C(C)=O)[C@H](O)C[C@H]1O[C@@H]2O[C@]3(C)CC[C@H]4[C@H](C)CC[C@@H]([C@H]1C)[C@@]24OO3 [Compound 3c] | 33 | 85 | 79 | 100 | 66 | 81 | 73 |  |
| CO[C@@]12[C@H](COC(N)=O)C3=C(C(=O)C(C)=C(N)C3=O)N1C[C@@H]1N[C@@H]12 [Mitomycin, reference compound] |  |  |  |  |  |  |  | inhibition at 10 µM (Prostrate PC-3; [3]): 54%; inhibition at 10 µM (Prostrate DU-145; [3]): 92% |
| CC(=O)O[C@H]1C(=O)[C@@]2(C)[C@H]([C@H](OC(=O)c3ccccc3)[C@]3(O)C[C@H](OC(=O)[C@H](O)[C@@H](NC(=O)c4ccccc4)c4ccccc4)C(C)=C1C3(C)C)[C@]1(OC(C)=O)CO[C@@H]1C[C@@H]2O [Paclitaxel, reference compound] |  |  |  |  |  |  |  | inhibition at 10 µM (Lung A-549; A549, Conc 1 × 10^−5 M, positive control): 69% |
